Test results: US20250145606A1 (Arcus Biosciences, Inc., priority 2023, published 2025)
Read-outs that look alike come from different tables or passages of the source. Marks after values point to notes of the source that are not given here.

Assays:
[1] = test system: Phospho-KIT (Y703) in M07e cells; experiment: Phospho-KIT (Y703) cellular assay in M07e cells; format: cell-based; settings: M-07e, read-out: M07e Cell IC50
In short: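 Serum-starved M07e cells preincubated 50 min at 37° C with 11-point half-log compound titration, then stimulated 10 min with SCF at 90.9 ng/mL final. Fixed, permeabilized cells stained for phospho-KIT Y703 and read by flow cytometry (live-gated geometric mean); IC50 by 4-parameter fit normalized to DMSO and positive control.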

[2] = test system: cynomolgus monkey hepatocytes; experiment: Bioactivation assessment in monkey hepatocytes; format: in vitro ADME; settings: 5 μM, 4 hours
Method: (§1) Bioactivation Assessment Procedure
(§2) Pooled male Sprague Dawley rat (BioIVT), male beagle dog (BioIVT), male cynomolgus monkey (BioIVT), and a 50-donor pool of cryopreserved human hepatocytes (BioIVT) was thawed in pre-warmed 37° C. InVitroGro™ HT media (BioIVT), centrifuged, and resuspended in the InVitroGro™ HI media (BioIVT). The number of viable cells was determined by the Trypan blue exclusion method. The cells were diluted to a concentration of two million viable cells per milliliter (viability >80%) and seeded into round-bottom 96-well plates. The test articles were dissolved in DMSO and further diluted in 50% CH3CN and InVitroGro™ HI media with final concentrations of 0.05% DMSO and 0.5% CH3CN in the incubation mixture. Incubation was performed at a final concentration of one million cells per milliliter and 5 μM test compounds with continuous shaking at 1100 rpm in a 37° C., 5/95% CO2/air incubator with 100% relative humidity. After 4 hours, the samples were quenched by addition of 3 volumes of CH3CN, vortexed for 15 minutes, and centrifuged at 4200 rpm for 15 minutes at 10° C. (Sorvall Legend XTR centrifuge, Thermo Scientific, Langenselbold, Germany). 80 μL of the resulting supernatant was transferred into a new plate and mixed with 160 μL water followed by liquid chromatography-high resolution mass spectrometry (LC-HRMS) analysis.
(§3) Structural assignments of metabolites were determined through mass spectral analysis. The level of bioactivation was estimated based on the relative peak area of bioactivation products to all identified metabolites. The following equation was used: […]
(§4) Bioactivation products included glutathione conjugates, imine methides, quinones, diols, and other relevant metabolites.

[3] = test system: human hepatocytes; experiment: Bioactivation assessment in human hepatocytes; format: in vitro ADME; settings: 5 μM, 4 hours
Method: as §1, §2, §3, §4

[4] = phospho-KIT (Y703), SCF-stimulated M07e cells

Row | Compound | IC50 [1, 4] | IC50 ([1]; Phospho-KIT (Y703), M07e cells) | IC50 [1] | Percent of total metabolism via bioactivation, Monkey hepatocytes [2] | Percent of total metabolism via bioactivation, Human hepatocytes [3]
1 | Cc1ncc(C(=O)Nc2cc(C(=O)Nc3ccc(CC(F)(F)F)cn3)c(F)cc2C)s1 [Example 1, N-[4-Fluoro-2-methyl-5-[[5-(2,2,2-trifluoroethyl)pyridin-2-yl]carbamoyl]phenyl]-2-methyl-1,3-thiazole-5-carboxamide] |  |  | < 100 nM | 4% | <0.1%^b
2 | Cc1ncc(C(=O)Nc2cc(C(=O)Nc3ccc(C4CC4)cn3)c(F)cc2C)s1 [Example 3, N-[5-[(5-Cyclopropylpyridin-2-yl)carbamoyl]-4-fluoro-2-methylphenyl]-2-methyl-1,3-thiazole-5-carboxamide] |  |  | < 100 nM | 2% | <0.1%
3 | Cc1ncc(C(=O)Nc2cc(C(=O)Nc3ccc(CC4CC4)cn3)c(F)cc2C)s1 [Example 5, N-[5-[[5-(Cyclopropylmethyl)pyridin-2-yl]carbamoyl]-4-fluoro-2-methylphenyl]-2-methyl-1,3-thiazole-5-carboxamide] |  |  | < 100 nM | <1% | <1%
4 | Cc1ncc(C(=O)Nc2cc(C(=O)Nc3ccc(CC(F)(F)F)cn3)c(F)cc2Cl)s1 [Example 46, N-[2-chloro-4-fluoro-5-[[5-(2,2,2-trifluoroethyl)pyridin-2-yl]carbamoyl]phenyl]-2-methyl-1,3-thiazole-5-carboxamide] |  | < 100 nM |  |  | 

Now from value to molecule, other results behind:

Row | IC50 [1, 4] | IC50 ([1]; Phospho-KIT (Y703), M07e cells) | Compound | IC50 [1] | Percent of total metabolism via bioactivation, Monkey hepatocytes [2] | Percent of total metabolism via bioactivation, Human hepatocytes [3]
5 | < 100 nM |  | Cc1ncc(C(=O)Nc2cc(C(=O)Nc3ccc(OC4CC4)cn3)c(F)cc2C)s1 [Example 2, N-[5-[(5-Cyclopropyloxypyridin-2-yl)carbamoyl]-4-fluoro-2-methylphenyl]-2-methyl-1,3-thiazole-5-carboxamide] |  |  | 
6 | < 100 nM |  | Cc1ncc(C(=O)Nc2cc(C(=O)Nc3cnc(OCC(C)(F)F)cn3)c(F)cc2C)s1 [Example 4, N-[5-[[5-(2,2-Difluoropropoxy)pyrazin-2-yl]carbamoyl]-4-fluoro-2-methylphenyl]-2-methyl-1,3-thiazole-5-carboxamide] |  |  | 
7 |  | < 100 nM | Cc1ncc(C(=O)Nc2cc(C(=O)Nc3ccc(OC(F)F)cn3)c(F)cc2C)s1 [Example 38, N-[5-[[5-(difluoromethoxy)pyridin-2-yl]carbamoyl]-4-fluoro-2-methylphenyl]-2-methyl-1,3-thiazole-5-carboxamide] |  |  | 
